Here are results for seven molecules from US20100260694A1, “Methionine Sulfoxide Peptide, Compositions And Methods Of Use” (priority 2009, published 2010).

One series concerns the target T1, elastase (Sus scrofa, UniProt P00772).
T1 construct: purchased Molecular Probes
The experiment in a line: Elastase activity assay (Molecular Probes) adapted for inhibition with α1-antitrypsin. Format: biochemical. How it is done:
(§1) Methods: An elastase assay from Molecular Probes was utilized and adapted for inhibition with α1-antitrypsin. Fluorescence was measured by excitation at 485 nm and emission at 525 nm in a CytoFluor plate reader.
This was achieved by incubating 0.1 mg/ml elastin and 0.05 units/ml elastase with α1-antitrypsin in a dose-dependent manner (2.5-50 ug/sample). The results are shown in FIG. 8, where con=control; E=elastase; I=inhibitor (included with assay); AT=α1-antitrypsin.
This was done by oxidizing 10 μg of α1-antitrypsin with hydrogen peroxide.
(§2) This was achieved by incubating the A1AT that had been oxidized in 30 mM H2O2 with 0.7 mg/ml msrA and 10 mM DTT for 2 hours. […] We start with 100% elastase. As before, α1-antitrypsin (AT) removes about 90% of the elastase activity (bar labeled Elastase+AT).

In series [1] the test system is Msr. Briefly: Msr expression in NHEK by RT-PCR and gel electrophoresis. It counts as cell-based, human. The settings on record: for level of Msr compared to a housekeeping gene: keratinocytes, RT-PCR. How it is done:
The first material tried was oxidized methionine (the sulfoxide form). […] However, in an experiment performed in February of 2004, an oxidized polypeptide gave very good results. Investigations continued along those lines.
(§3) NHEK cells were incubated overnight in culture medium (control) and in culture medium containing oxidized peptide and in culture medium containing unoxidized peptide (control). Concentrations (mg/mL) of the oxidized peptide included 0.01, 0.1 and 0.25. The unoxidized peptide (i.e. Met-enkephalin) was tested only at 0.25 mg/mL. After incubation, mRNA was extracted from the cells and cDNA was prepared by reverse transcription polymerase chain reaction (RT-PCR). Samples were probed for Msr via gel electrophoresis using β-microglobulin as a control.

In series [2] the test system is Msr. The experiment in a line: Msr in NHEK, confirmation by Western blotting. Format: cell-based, human. The settings on record: overnight incubation. How it is done:
as §3
(In general: Immunoblotting shows a protein as a band on a membrane.)

In a further series the test system is keratinocytes. The experiment in a line: Cytotoxicity in keratinocytes. It counts as cell-based. The settings on record: various concentrations, epidermal cells / keratinocytes.
The subject of series [3] is Epidermal Full Thickness 200 (EFT 200) living skin models. The experiment in a line: Sunburn Cell production in UVB-irradiated EFT 200 living skin models. Format: cell-based. The settings on record: 1 mg/ml for 48 hours, then 100 mJ/cm^2 UVB. How it is done: Methods: Epidermal Full Thickness 200 (EFT 200) living skin models were obtained from MatTek and incubated for 48 hours in media with or without 1 mg/ml of the MetO-enkephalin. The oxidized peptide can be stored at room temperature. Because the peptide is already oxidized, it has relative low reactivity in storage. Two ml of media were added beneath the living skin models, which were situated on a transwell membrane to allow the maintenance of an air/aqueous interface. After 48 hours, the living skin models were exposed to 100 mJ/cm^2 UVB, re-fed, and incubated overnight. The next day, the samples were fixed in 10% formalin and sent to Paragon Bioservices for histological sectioning and H&E staining. Five contiguous microscopic fields for each section were evaluated for the presence of SBC by counting the number of SBC and uninvolved cells and expressing SBC as a percentage of the total. Sunburn Cells are characterized by eosinophilic staining of the cytoplasm and pyknotic nuclei (condensed chromatin).

A short description of series [4]: UV spectrum of the peptide. It counts as physicochemical. The settings on record: at 290 nm.
The next series deals with oxidized α1-antitrypsin (Homo sapiens, UniProt P01009). Briefly: Reversal of α1-antitrypsin oxidation by msrA, read out in elastase activity assay. The settings on record: oxidized A1AT incubated with 0.7 mg/mL MsrA and 10 mM DTT for 2 hours. Format: biochemical. How it is done:
as §1, §2

T1 sequence (P00772 27-266): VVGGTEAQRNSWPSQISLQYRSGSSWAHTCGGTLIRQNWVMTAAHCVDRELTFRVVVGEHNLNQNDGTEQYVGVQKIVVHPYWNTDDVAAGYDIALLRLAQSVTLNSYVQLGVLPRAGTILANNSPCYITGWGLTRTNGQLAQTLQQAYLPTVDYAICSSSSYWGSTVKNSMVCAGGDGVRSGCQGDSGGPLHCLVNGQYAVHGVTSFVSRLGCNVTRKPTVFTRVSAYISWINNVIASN
oxidized α1-antitrypsin, sequence (P01009 25-418): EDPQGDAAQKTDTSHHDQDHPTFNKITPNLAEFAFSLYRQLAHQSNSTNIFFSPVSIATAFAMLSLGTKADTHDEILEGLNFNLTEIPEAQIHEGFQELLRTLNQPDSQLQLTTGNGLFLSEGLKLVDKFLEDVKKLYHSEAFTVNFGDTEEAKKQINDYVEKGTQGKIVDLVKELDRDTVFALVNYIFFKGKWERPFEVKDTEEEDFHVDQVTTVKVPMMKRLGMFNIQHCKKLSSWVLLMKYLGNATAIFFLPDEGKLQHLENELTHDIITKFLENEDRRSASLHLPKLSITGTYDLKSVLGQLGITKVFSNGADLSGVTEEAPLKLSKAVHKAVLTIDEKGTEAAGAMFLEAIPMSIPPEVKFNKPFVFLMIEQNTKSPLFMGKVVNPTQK

As to “ATox: α1-antitrypsin oxidized in 30 mM H2O2”, the “elastase activity with oxidized α1-antitrypsin” value with elastase (bar Elastase+ATox, FIG. 10, oxidized in 30 mM H2O2) is reported as “all of the elastase activity returns”.
For the molecule “α1-antitrypsin: serin protease inhibitor made in the liver, inhibits a wide variety of proteases”, the “elastase inhibition after oxidation with H2O2” value with elastase (10 μg α1-antitrypsin oxidized with 30 mM H2O2, 3 hours, ambient temperature) is on record as “almost all elastase inhibition provided by α1-antitrypsin, is lost”. Also, the “elastase activity (fluorescence), dose dependence” value with elastase (0.1 mg/ml elastin, 0.05 units/ml elastase, α1-antitrypsin 2.5-50 ug/sample) was “Fluorescence decreases with increasing concentration of α1-antitrypsin”. In addition, the elastase activity removed result in the series with elastase (bar Elastase+AT, FIG. 10) is given as “about 90%”.
Regarding “Oxidized bovine serum albumin: Oxidized bovine serum albumin, a comparatively large protein”, in the series on Msr [1], the “level of Msr compared to a housekeeping gene” value is on record as “without success”.
As for `CSCC[C@H](NC(=O)[C@@H](Cc1ccccc1)NC(=O)CNC(=O)CNC(=O)[C@H](N)Cc1ccc(O)cc1)C(=O)O` [Met-enkephalin, Met- enkephalin, reference compound], the “increase in Msr expression” value with Msr [1] (NHEK, overnight incubation, 0.25 mg/mL) is on record as “no significant increase”. For the same molecule, the “Msr mRNA in treated cells by Western blotting” value in the series with Msr [2] was “no significant increases of Msr mRNA”.
As for “Tyr - Gly - Gly - Phe - MetO [MetO-enkephalin]”, in the series on keratinocytes, the cytotoxicity result is “low cytotoxicity”. Moreover, the “average percent reduction in SBC from both trials” value in series [3] amounted to 31.1%. Also, the “average increase in Msr expression” value in the series with Msr [1] (NHEK, overnight incubation, oxidized peptide concentration 0.01%) is 18%; in the series with Msr [1] (NHEK, overnight incubation, oxidized peptide concentration 0.1%), 28%; in the series on Msr [1] (NHEK, overnight incubation, oxidized peptide concentration 0.25%), 25.4%. In series [4], this molecule showed an extinction coefficient of 145.5. This molecule displayed a k-value of absorbance in series [4] of 0.24. For the same molecule, in the series with Msr [2], the “Msr mRNA in treated cells by Western blotting” value was “increases of Msr mRNA”.
Consider `C[S+]([O-])CC[C@H](N)C(=O)O` (some centres unmarked) [oxidized methionine, methionine sulfoxide], for which, in the series on Msr [1], the “level of Msr compared to a housekeeping gene” value is “not significantly raised”.

B1: MsrA: form of Msr involved in the reduction of the S-stereoisomer (protein, UniProt Q9UJ68 24-235, looked up)
Mitochondrial peptide …: GNSASNIVSPQEALPGRKEQTPVAAKHHVNGNRTVEPFPEGTQMAVFGMGCFWGAERKFWVLKGVYSTQVGFAGGYTSNPTYKEVCSEKTGHAEVVRVVYQPEHMSFEELLKVFWENHDPTQGMRQGNDHGTQYRSAIYPTSAKQMEAALSSKENYQKVLSEHGFGPITTDIREGQTFYYAEDYHQQYLSKNPNGYCGLGGTGVSCPVGIKK
Turning to B1, the “re-inhibition of elastase activity” value with oxidized α1-antitrypsin is given as “over 59%”.
